This is an account of results in patent US20170247336A1 (MERCK SHARP & DOHME CORP., priority 2014, published 2017).

Where a name gives a salt, the structure may show the parent alone.

One data set has as its target T1, human HIF-PHD2 (Homo sapiens, UniProt Q9GZT9).
T1 construct: FLAG-tagged full length PHD2 expressed in and purified from baculovirus-infected Sf9 cells; FLAG; made in house; host or cells: baculovirus-infected Sf9 cells
The data set is described as follows: HIF-PHD2 inhibition: hydroxylation of HIF-1α peptide, time resolved fluorescence. Type of data set: biochemical. The following applies: FLAG-tagged full length PHD2; 0.2 μM 2-oxoglutarate, 0.5 μM HIF-1α peptide. As to the method: To each well of a 384-well plate, 1 μL of test compounds in DMSO (final concentration ranging from 0.3 nM to 10 μM) were added into 20 μl of assay buffer (50 mM Tris pH 7.4/0.01% Tween-20/0.1 mg/ml bovine serum albumin/10 μM ferrous sulfate/1 mM sodium ascorbate/20 μg/ml catalase) containing 0.15 μg/ml FLAG-tagged full length PHD2 expressed in and purified from baculovirus-infected Sf9 cells. After a 5 min preincubation at room temperature, the enzymatic reactions were initiated by the addition of 4 μL of substrates {final concentrations of 0.2 μM 2-oxoglutarate and 0.5 μM HIF-1α peptide biotinyl-DLDLEMLAPYIPMDDDFQL (SEQ ID NO: 1)}. After incubation for 45 minutes at room temperature, the reactions were terminated by the addition of a 25 μL quench/detection mix to a final concentration of 1 mM ortho-phenanthroline, 0.1 mM EDTA, 0.5 nM anti-(His)6 LANCE reagent (Perkin-Elmer Life Sciences), 100 nM AF647-labeled streptavidin (Invitrogen), and 2 μg/ml (His)6-VHL complex {S. Tan Protein Expr. Purif. 21, 224-234 (2001)} and the signals were developed for 30 minutes at room temperature. The ratio of time resolved fluorescence signals at 665 and 620 nm was determined, and percent inhibition was calculated relative to the high control samples (DMSO treated) run in parallel, after background subtraction.

Data set [1] can be described thus: Pharmacokinetics (half life) in rat after intravenous administration. The following applies: plasma, male Wistar Han rats; for half-life: male, Wistar Han, rat, iv, 0.5 mg/kg, read-out: Half Life (t1/2) (converted). Type of data set: in vivo. As to the method: The half life of compounds described in this application were evaluated in rat. Shown in Table 9 are T½ of selected examples in rat (Wister Han) for selected compounds of the present invention. In addition Table 9 includes half life data for compounds disclosed in International Patent Application published as WO 2013/043621.
The pharmacokinetics of the compounds disclosed in Table 9 were studied in male Wistar Han rats after intravenous (IV) administration. For IV dosing at 0.5 mg/kg in rat, compounds were formulated as a solution in DMSO/PEG400/water (20/60/20, by vol.). Plasma samples obtained from dosed animals were prepared for analysis by means of a single step protein precipitation technique by adding 200 μL of acetonitrile to 50 μL aliquots of individual subject samples. Samples were mixed by vortex for homogeneity and then subjected to centrifugation at 3500 rpm for 10 min. The supernatant (200 μL) was collected and injected into the LC-MS/MS for analysis. Pharmacokinetic parameters were calculated using established non-compartmental methods.

T1 sequence (Q9GZT9 whole entry): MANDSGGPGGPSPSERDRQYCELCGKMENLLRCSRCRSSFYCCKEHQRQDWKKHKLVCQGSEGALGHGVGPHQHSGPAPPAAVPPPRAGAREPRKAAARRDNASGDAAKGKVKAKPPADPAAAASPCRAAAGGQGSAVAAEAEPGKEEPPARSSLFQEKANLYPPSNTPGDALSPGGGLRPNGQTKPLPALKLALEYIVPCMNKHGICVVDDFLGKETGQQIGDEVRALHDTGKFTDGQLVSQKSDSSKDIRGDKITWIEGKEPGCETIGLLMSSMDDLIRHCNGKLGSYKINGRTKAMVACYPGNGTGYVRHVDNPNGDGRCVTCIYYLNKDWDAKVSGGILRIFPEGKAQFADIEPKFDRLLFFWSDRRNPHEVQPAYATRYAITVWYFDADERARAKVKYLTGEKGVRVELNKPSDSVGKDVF

One may read the IC50 as the concentration needed to halve the response being measured. A higher IC50 goes with a need for much substance. At human HIF-PHD2, `COc1ccc([C@@H](NC(=O)c2cnc(C(=O)NCCC(=O)O)nc2O)c2ccccc2)cc1` [Example 36] returned an IC50 of 2.7 nM. In addition, in data set [1], the half-life was 6.76 h.
For `CC(CNC(=O)c1ncc(C(=O)NC2(c3ccc(Br)cc3)CC2)c(O)n1)C(=O)O` (single isomer, unassigned) [Example 16, (R) or (S)-3-(5-((1-(4-bromophenyl)cyclopropyl)carbamoyl)-4-hydroxypyrimidine-2-carboxamido)-2-methylpropanoic acid], in that order: 1.3 nM and 0.88 h.
The like results for `C[C@H](CNC(=O)c1ncc(C(=O)NC(c2ccccc2)c2ccccc2)c(O)n1)C(=O)O` (single isomer, unassigned) [Example 2] were, in that order, 1.7 nM and 1.45 h.
For `O=C(NC[C@H](O)C(=O)O)c1ncc(C(=O)NC(c2ccccc2)c2ccccc2)c(O)n1` [Example 7, (S)-3-(5-(benzhydrylcarbamoyl)-4-hydroxypyrimidine-2-carboxamido)-2-hydroxypropanoic acid], in that order: 1.4 nM and 1.02 h.
Compound `CC(NC(=O)c1cnc(C(=O)NCCC(=O)O)nc1O)c1ccc(-c2ccc(F)cc2)cc1` (racemic) [Example 44, 3-(5-((1-(4′-fluoro-[1,1′-biphenyl]-4-yl)ethyl)carbamoyl)-4-hydroxypyrimidine-2-carboxamido)propanoic acid] registered an IC50 against human HIF-PHD2 of 2.5 nM. Further, in data set [1], the half-life was 0.69 h.
For `COc1ccc(C(NC(=O)c2cnc(C(=O)NCCC(=O)O)nc2O)c2ccc3c(c2)CCO3)cc1` (stereo not drawn) [Example 39, 3-(5-(((2,3-dihydrobenzofuran-5-yl)(4-methoxyphenyl)methyl)carbamoyl)-4-hydroxypyrimidine-2-carboxamido)propanoic acid], in that order: 1.7 nM and 1.59 h.
For `COc1ccc([C@H](NC(=O)c2cnc(C(=O)NCCC(=O)O)nc2O)c2ccccc2)cc1` [Example 37], at human HIF-PHD2, the 50% inhibitory concentration (IC50) was determined as 2.4 nM. In data set [1], the half-life was 0.69 h.
`O=C(O)CNC(=O)c1ncc(C(=O)NC(c2ccccc2)c2ccccc2)c(O)n1` [Example 2-12 from WO2013/040789, reference compound]: the half-life in data set [1] was 0.56 h.
In turn, `CC(CNC(=O)c1ncc(C(=O)NC2(c3ccc(Br)cc3)CC2)c(O)n1)C(=O)O` (single isomer, unassigned) [Example 17, (R) or (S)-3-(5-((1-(4-bromophenyl)cyclopropyl)carbamoyl)-4-hydroxypyrimidine-2-carboxamido)-2-methylpropanoic acid] displayed an IC50 on human HIF-PHD2 of 0.8 nM. Also, the “Half Life (t1/2)” value in data set [1] (IV 0.5 mg/kg) worked out at 1.36 h.
With `COc1ccc(C(NC(=O)c2cnc(C(=O)NCC(C)C(=O)O)nc2O)c2ccc3cc(OC)ccc3n2)cc1` (single isomer, unassigned) [Example 14, (R) or (S)-3-(4-hydroxy-5-(((4-methoxyphenyl)(6-methoxyquinolin-2-yl)methyl)carbamoyl)pyrimidine-2-carboxamido)-2-methylpropanoic acid], the IC50 against human HIF-PHD2 turned out to be 16 nM. Moreover, in data set [1], the half-life is 1.36 h.
As to `O=C(O)c1cc(-c2ncc(C(=O)NC(c3ccccc3)c3ccccc3)c(O)n2)no1` [Example 2-16 from WO2013/040789, reference compound], the half-life in data set [1] was 0.3 h.
Consider `COc1ccc(C(NC(=O)c2cnc(C(=O)NCC(C)C(=O)O)nc2O)c2ccc(OC)cc2)cc1` (single isomer, unassigned) [Example 15, (R) or (S)-3-(5-((bis(4-methoxyphenyl)methy)carbamoyl)-4-hydroxypyrimidine-2-carboxamido)-2-methylpropanoic acid], for which it took 10 nM to reach half-maximal inhibition on human HIF-PHD2 (IC50). Besides, the half-life in data set [1] is 0.99 h.
In turn, `C[C@@H](CNC(=O)c1ncc(C(=O)NC(c2ccccc2)c2ccccc2)c(O)n1)C(=O)O` (single isomer, unassigned) [Example 1] yielded an IC50 at human HIF-PHD2 of 2.3 nM. Moreover, the half-life in data set [1] was 1.9 h.
For `O=C(N[C@@H](Cc1c[nH]c2ccccc12)C(=O)O)c1ncc(C(=O)NC(c2ccccc2)c2ccccc2)c(O)n1` [Example 6, (2S)-2-(5-(benzhydrylcarbamoyl)-4-hydroxypyrimidine-2-carboxamido)-3-(3aH-indo1-3-yl)propanoic acid], in that order: 8.9 nM and 1.68 h.
With `O=C(O)CCNC(=O)c1ncc(C(=O)NC(c2ccccc2)c2ccccc2)c(O)n1` [Example 2-11 from WO2013/040789, reference compound], in data set [1], the half-life was 0.28 h.
Take `CC(CNC(=O)c1ncc(C(=O)NC(C)(C)c2ccc(-c3cccc4cnccc34)cc2)c(O)n1)C(=O)O` (single isomer, unassigned) [Example 21, (R) or (S)-2-((2-carboxypropyl)carbamoyl)-6-hydroxy-5-((2-(4-(isoquinolin-5-yl)phenyl)propan-2-yl)carbamoyl)pyrimidin-1-ium formate]: inhibition on human HIF-PHD2 was half-maximal at 4.8 nM (IC50).
Same read-out and setting: as for `COc1ccc(-c2ccc(C(C)(C)NC(=O)c3cnc(C(=O)NCC(C)C(=O)O)nc3O)cn2)cc1` (single isomer, unassigned) [Example 19, (R) or (S)-3-(4-hydroxy-5-((2-(6-(4-methoxyphenyl)pyridin-3-yl)propan-2-yl)carbamoyl)pyrimidine-2-carboxamido)-2-methylpropanoic acid], the figure is 2.8 nM; as for `CC(CNC(=O)c1ncc(C(=O)NC(C)(C)c2ccc(-c3ccc(OC(F)(F)F)cc3)cc2)c(O)n1)C(=O)O` (single isomer, unassigned) [Example 25, (R) or (S)-3-(4-hydroxy-5-((2-(4′-(trifluoromethoxy)-[1,1′-biphenyl]-4-yl)propan-2-yl)carbamoyl)pyrimidine-2-carboxamido)-2-methylpropanoic acid], 13 nM; as for `O=C(O)CCNC(=O)c1ncc(C(=O)NC(c2ccccc2)c2ccc(C(F)(F)F)cc2)c(O)n1` (stereo not drawn) [Example 49, 3-(4-hydroxy-5-((phenyl(4-(trifluoromethyl)phenyl)methyl)carbamoyl)pyrimidine-2-carboxamido)propanoic acid], 1 nM.
Compound `O=C(O)CCNC(=O)c1ncc(C(=O)NC2(c3ccc(Br)cc3)CC2)c(O)n1` [Example 45, 3-(5-((1-(4-bromophenyl)cyclopropyl)carbamoyl)-4-hydroxypyrimidine-2-carboxamido)propanoic acid] showed an IC50 against human HIF-PHD2 of 0.4 nM. Also, in data set [1], the half-life was 0.62 h.
For `O=C(NCC1(C(=O)O)CC1)c1ncc(C(=O)NC(c2ccccc2)c2ccccc2)c(O)n1` [Example 4, 1-((5-(benzhydrylcarbamoyl)-4-hydroxypyrimidine-2-carboxamido)methyl)cyclopropanecarboxylic acid], in that order: 8.5 nM and 4.78 h.
`CNc1ccc(C(NC(=O)c2cnc(C(=O)NCCC(=O)O)nc2O)c2ccc(OC)cc2)cn1` (single isomer, unassigned) [Example 34, (R) or (S)-3-(4-hydroxy-5-(((4-methoxyphenyl)(6-(methylamino)pyridin-3-yl)methyl)carbamoyl)pyrimidine-2-carboxamido)propanoic acid] had an IC50 on human HIF-PHD2 of 0.58 nM.
